From PubChem BioAssay (NCI)
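Compound exposure: 48 hours, 5 concentrations, 96-well plates. Definition used: TGI = concentration required for complete inhibition of growth.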

Columns and labels:
Test in all cases: growth of human tumour cells (NCI), 48 h
[1] = test system: 786-0 renal
[2] = test system: A498 renal
[3] = test system: A549 NSCLC
[4] = test system: ACHN renal
[5] = test system: BT-549 breast
[6] = test system: CAKI-1 renal
[7] = test system: CCRF-CEM leukemia
[8] = test system: COLO 205 colon
[9] = test system: DU-145 prostate
[10] = test system: EKVX NSCLC
[11] = test system: HCT-116 colon
[12] = test system: HCT-15 colon
[13] = test system: HL-60(TB) leukemia
[14] = test system: HOP-62 NSCLC
[15] = test system: HOP-92 NSCLC
[16] = test system: HS 578T breast
[17] = test system: HT29 colon
[18] = test system: IGROV1 ovarian
[19] = test system: K-562 leukemia
[20] = test system: KM12 colon
[21] = test system: LOX IMVI melanoma
[22] = test system: M14 melanoma
[23] = test system: MALME-3M melanoma
[24] = test system: MCF7 breast
[25] = test system: MDA-MB-231 breast
[26] = test system: MDA-MB-435
[27] = test system: MDA-N
[28] = test system: MOLT-4 leukemia
[29] = test system: NCI-H226 lung
[30] = test system: NCI-H23 lung
[31] = test system: NCI-H460 lung
[32] = test system: NCI-H522 lung
[33] = test system: NCI/ADR-RES ovarian
[34] = test system: OVCAR-3 ovarian
[35] = test system: OVCAR-4 ovarian
[36] = test system: OVCAR-5 ovarian
[37] = test system: OVCAR-8 ovarian
[38] = test system: PC-3 prostate
[39] = test system: RPMI-8226 leukemia
[40] = test system: RXF 393 renal
[41] = test system: SF-268 CNS
[42] = test system: SF-295 CNS
[43] = test system: SF-539 CNS
[44] = test system: SK-MEL-2 melanoma
[45] = test system: SK-MEL-28 melanoma
[46] = test system: SK-MEL-5 melanoma
[47] = test system: SK-OV-3 ovarian
[48] = test system: SN12C renal
[49] = test system: SNB-19 CNS
[50] = test system: SNB-75 CNS
[51] = test system: SR leukemia
[52] = test system: SW-620 colon
[53] = test system: T-47D breast
[54] = test system: TK-10 renal
[55] = test system: U251 CNS
[56] = test system: UACC-257 melanoma
[57] = test system: UACC-62 melanoma
[58] = test system: UO-31 renal

In the case of `CC(=O)OCCOc1cc2c([nH]c3ccccc32)c(C)c2cccc1-2`, the TGI [1] is reported as 11 µM, the TGI [2] is reported as 26.5 µM and the TGI [3] is reported as over 32.2 µM. It also gave a TGI [4] of 3.35 µM, a TGI [5] of 8.22 µM and a TGI [6] of 6.14 µM. It also gave a TGI [7] of over 30 µM, a TGI [8] of 3.22 µM and a TGI [9] of 15.8 µM. For the same compound, the TGI [10] was 5.17 µM, the TGI [11] was 13.1 µM and the TGI [12] was 10.3 µM. For the same compound, the TGI [13] was 12.9 µM, the TGI [14] was 18.5 µM and the TGI [15] was 5.32 µM. For the same compound, the TGI [16] was over 100 µM, the TGI [17] was 21.6 µM and the TGI [18] was 4.84 µM. It also gave a TGI [19] of over 100 µM, a TGI [20] of 10.3 µM and a TGI [21] of 6.57 µM. For the same compound, the TGI [22] was 6.76 µM, the TGI [23] was 5.64 µM and the TGI [24] was 15.2 µM. It also gave a TGI [25] of 3.38 µM, a TGI [26] of 5.6 µM and a TGI [27] of 11 µM. For the same compound, the TGI [28] was over 100 µM, the TGI [29] was 25 µM and the TGI [30] was 5.17 µM. For the same compound, the TGI [31] was 7.6 µM, the TGI [32] was 4.29 µM and the TGI [33] was over 100 µM. It also gave a TGI [34] of 4.97 µM, a TGI [35] of 4 µM and a TGI [36] of 9.11 µM. For the same compound, the TGI [37] was 7.68 µM, the TGI [38] was 3.68 µM and the TGI [39] was over 26.4 µM. The TGI [40] was 4.4 µM, the TGI [41] was 7.28 µM and the TGI [42] was 15.2 µM. The TGI [43] was 3.62 µM, the TGI [44] was 4.96 µM and the TGI [45] was 7.57 µM. For the same compound, the TGI [46] was 9.79 µM, the TGI [47] was 18.5 µM and the TGI [48] was 10.9 µM. For the same compound, the TGI [49] was 8.97 µM, the TGI [50] was 3.51 µM and the TGI [51] was over 33.3 µM. For the same compound, the TGI [52] was over 24.9 µM, the TGI [53] was 5.57 µM and the TGI [54] was 5.4 µM. For the same compound, the TGI [55] was 3.16 µM, the TGI [56] was 3.74 µM and the TGI [57] was 6.05 µM. It also gave a TGI [58] of 3.34 µM.
